Measured values reported in the NIST ThermoML archive (doi:10.1016/j.fluid.2010.07.005).

Tests used:
[1] = excess molar enthalpy (molar enthalpy of mixing); xn = mol fraction of the nth substance listed; details: 298.15 K, 101.33 kPa, Liquid, Flow calorimetry
[2] = xn = mol fraction of the nth substance listed; details: 101.33 kPa, Liquid; for viscosity: Capillary tube (Ostwald / Ubbelohde) method
[3] = molar heat capacity at constant pressure; xn = mol fraction of the nth substance listed; details: 101.33 kPa, Liquid, Vacuum adiabatic calorimetry

COP(=O)([O-])OC.Cn1cc[n+](C)c1 [1,3-dimethylimidazolium dimethylphosphate] + CCO
[1]
Details | excess molar enthalpy [kcal/mol]
x1 = 0.177 | -0.329
x1 = 0.307 | -0.481
x1 = 0.524 | -0.485
x1 = 0.665 | -0.377
x1 = 0.8 | -0.241
x1 = 1 | 0

Details | molar heat capacity at constant pressure, 298.15 K [J/K/mol] | molar heat capacity at constant pressure, 303.15 K [J/K/mol] | molar heat capacity at constant pressure, 313.15 K [J/K/mol] | molar heat capacity at constant pressure, 323.15 K [J/K/mol] | viscosity, 298.15 K [mPa·s] | viscosity, 303.15 K [mPa·s] | viscosity, 308.15 K [mPa·s] | viscosity, 313.15 K [mPa·s] | viscosity, 318.15 K [mPa·s] | viscosity, 323.15 K [mPa·s]
[2], x1 = 0.202 | – | – | – | – | 6.83 | 5.98 | 5.3 | 4.83 | 4.32 | 3.94
[2], x1 = 0.414 | – | – | – | – | 22.99 | 19 | 16.21 | 14.15 | 12.35 | 11.03
[2], x1 = 0.562 | – | – | – | – | 48.76 | 38.45 | 30.8 | 26.47 | 22.23 | 19.27
[2], x1 = 0.807 | – | – | – | – | 137.88 | 105.91 | 80.22 | 63.76 | 50.57 | 42.11
[2], x1 = 1 | – | – | – | – | 271.86 | 188.3 | 139.49 | 110.25 | 84.44 | 69.99
[3], x1 = 0.224 | 145.29 | 153.59 | 172.15 | 190.19 | – | – | – | – | – | –
[3], x1 = 0.408 | 193.74 | 205.3 | 227.82 | 247.28 | – | – | – | – | – | –
[3], x1 = 0.596 | 235.91 | 247.99 | 280.92 | 299.34 | – | – | – | – | – | –
[3], x1 = 0.803 | 258.54 | 267.73 | 289.85 | 304.85 | – | – | – | – | – | –
[3], x1 = 1 | 282.83 | 296.61 | 310.83 | 321.05 | – | – | – | – | – | –

mass density [kg/m3], [2], Specific gravity balance
Details | 298.15 K | 303.15 K | 308.15 K | 313.15 K | 318.15 K | 323.15 K
x1 = 0.202 | 1000.6 | 996.6 | 992.7 | 989.7 | 986.9 | 983.2
x1 = 0.414 | 1116.5 | 1113.4 | 1109.8 | 1106.6 | 1103.5 | 1098.4
x1 = 0.562 | 1166.7 | 1163.4 | 1159.7 | 1156.2 | 1152.4 | 1148.5
x1 = 0.807 | 1223.2 | 1219.5 | 1216.8 | 1213.8 | 1211.4 | 1207.5
x1 = 1 | 1258.7 | 1255.9 | 1253 | 1249.1 | 1245.2 | 1241.5

COP(=O)([O-])OC.Cn1cc[n+](C)c1 [1,3-dimethylimidazolium dimethylphosphate] + CO
[1]
Details | excess molar enthalpy [kcal/mol]
x1 = 0.165 | -0.539
x1 = 0.28 | -0.779
x1 = 0.466 | -0.783
x1 = 0.593 | -0.687
x1 = 0.744 | -0.475
x1 = 1 | 0

Details | molar heat capacity at constant pressure, 298.15 K [J/K/mol] | molar heat capacity at constant pressure, 303.15 K [J/K/mol] | molar heat capacity at constant pressure, 313.15 K [J/K/mol] | molar heat capacity at constant pressure, 323.15 K [J/K/mol] | viscosity, 298.15 K [mPa·s] | viscosity, 303.15 K [mPa·s] | viscosity, 308.15 K [mPa·s] | viscosity, 313.15 K [mPa·s] | viscosity, 318.15 K [mPa·s] | viscosity, 323.15 K [mPa·s]
[2], x1 = 0.203 | – | – | – | – | 3.8 | 3.32 | 3.06 | 2.84 | 2.6 | 2.4
[2], x1 = 0.399 | – | – | – | – | 18.33 | 16.56 | 12.43 | 11.08 | 9.76 | 8.79
[2], x1 = 0.603 | – | – | – | – | 53.9 | 38.18 | 31.37 | 25.8 | 22.86 | 18.45
[2], x1 = 0.805 | – | – | – | – | 145.63 | 98.68 | 75.4 | 61.57 | 49.9 | 40.2
[2], x1 = 1 | – | – | – | – | 271.86 | 188.3 | 139.49 | 110.25 | 84.44 | 69.99
[3], x1 = 0.202 | 130.82 | 144.77 | 169.01 | 190.07 | – | – | – | – | – | –
[3], x1 = 0.399 | 177.61 | 191.43 | 214.09 | 233.4 | – | – | – | – | – | –
[3], x1 = 0.591 | 215.46 | 225.28 | 246.8 | 262.54 | – | – | – | – | – | –
[3], x1 = 0.81 | 256.75 | 261.78 | 274.8 | 290.24 | – | – | – | – | – | –
[3], x1 = 1 | 282.83 | 296.61 | 310.83 | 321.05 | – | – | – | – | – | –

mass density [kg/m3], [2], Specific gravity balance
Details | 298.15 K | 303.15 K | 308.15 K | 313.15 K | 318.15 K | 323.15 K
x1 = 0.203 | 1040.2 | 1037.1 | 1033.2 | 1030.2 | 1027.6 | 1025.1
x1 = 0.399 | 1158.3 | 1155.2 | 1151.2 | 1148.1 | 1147 | 1140.1
x1 = 0.603 | 1205.5 | 1201.4 | 1197.8 | 1194.1 | 1190.8 | 1188
x1 = 0.805 | 1236.4 | 1233 | 1229.7 | 1226.4 | 1223.1 | 1219.8
x1 = 1 | 1258.7 | 1255.9 | 1253 | 1249.1 | 1245.2 | 1241.5

COP(=O)([O-])OC.Cn1cc[n+](C)c1 [1,3-dimethylimidazolium dimethylphosphate] + O
[1]
Details | excess molar enthalpy [kcal/mol]
x1 = 0.104 | -1.12
x1 = 0.209 | -1.42
x1 = 0.369 | -1.54
x1 = 0.498 | -1.45
x1 = 0.604 | -1.28
x1 = 1 | 0

Details | molar heat capacity at constant pressure, 298.15 K [J/K/mol] | molar heat capacity at constant pressure, 303.15 K [J/K/mol] | molar heat capacity at constant pressure, 313.15 K [J/K/mol] | molar heat capacity at constant pressure, 323.15 K [J/K/mol] | viscosity, 298.15 K [mPa·s] | viscosity, 303.15 K [mPa·s] | viscosity, 308.15 K [mPa·s] | viscosity, 313.15 K [mPa·s] | viscosity, 318.15 K [mPa·s] | viscosity, 323.15 K [mPa·s]
[2], x1 = 0.252 | – | – | – | – | 40.02 | 32.61 | 24.46 | 20.28 | 16.97 | 14.5
[2], x1 = 0.428 | – | – | – | – | 74.43 | 55.22 | 43.51 | 35.23 | 27.92 | 23.63
[2], x1 = 0.617 | – | – | – | – | 145.21 | 110.23 | 82.04 | 66.13 | 51.66 | 41.92
[2], x1 = 0.795 | – | – | – | – | 197.92 | 138.81 | 104.59 | 80.27 | 63.01 | 50.35
[2], x1 = 1 | – | – | – | – | 271.86 | 188.3 | 139.49 | 110.25 | 84.44 | 69.99
[3], x1 = 0.21 | 116.48 | 124.21 | 147.96 | 171.34 | – | – | – | – | – | –
[3], x1 = 0.375 | 143.19 | 151.23 | 167.21 | 182.63 | – | – | – | – | – | –
[3], x1 = 0.57 | 197.42 | 205.75 | 220.8 | 232.9 | – | – | – | – | – | –
[3], x1 = 0.821 | 255.8 | 267.68 | 284.76 | 298.31 | – | – | – | – | – | –
[3], x1 = 1 | 282.83 | 296.61 | 310.83 | 321.05 | – | – | – | – | – | –

mass density [kg/m3], [2], Speicific gravity balance
Details | 298.15 K | 303.15 K | 308.15 K | 313.15 K | 318.15 K | 323.15 K
x1 = 0.252 | 1233.4 | 1231 | 1227.9 | 1224 | 1220.8 | 1216.8
x1 = 0.428 | 1241.5 | 1239.4 | 1236.2 | 1233.6 | 1230.5 | 1226.2
x1 = 0.617 | 1248.5 | 1245.8 | 1241.8 | 1239.3 | 1236.1 | 1232.9
x1 = 0.795 | 1253.6 | 1250.5 | 1247.2 | 1243.9 | 1241.1 | 1236.8
x1 = 1 | 1258.7 | 1255.9 | 1253 | 1249.1 | 1245.2 | 1241.5
